Experiments:
Format in all cases: physicochemical
[1] = Water uptake into concentrate container without gas barrier, Example 6; settings: 40° C., 75% relative humidity; for water uptake into the concentrate container (water content in percent by weight): after about 26 weeks; for water uptake: period of 6 months
Experimental: The water uptake into a concentrate container without a gas barrier, comprising MgCl2×6H2O or alkaline magnesium carbonate, 4MgCO3×Mg(OH)2×5H2O respectively, was compared. The concentrate containers were each exposed in the climate chamber to 40° C. and 75% relative humidity for several weeks. […] The time in weeks is plotted on the abscissa. The water content in percent by weight is plotted on the ordinate.

[2] = Storage of MgCl2×6H2O in gas-permeable concentrate container in climate chamber, Example 5; settings: 40° C., 75% relative humidity, 6 months
Experimental: MgCl2×6H2O was stored in the climate chamber at 40° C. and 75% relative humidity in a gas-permeable concentrate container.

[3] = Caking behaviour of concentrates in containers stored in climate chamber, Examples 2-4; settings: Example 4; 40° C., 75% relative humidity, 6 months
Source text: The container comprised of film material without appreciable gas-barrier properties is depicted on the left of FIG. 1. […] The container shown on the right of FIG. 1 comprised the same materials. Additionally, said film comprised a gas-barrier layer of silicon oxide. The gas permeability of said film was below 20 cm^3/(m^2·d·bar) for CO2, as measured in accordance with DIN 53380—part 4. […] 1.
The stability of a concentrate comprised of components according to the invention versus conventional components was tested. […] It was assumed that the crystal water of the glucose in conjunction with sodium chloride caused caking.

Which “water uptake into the concentrate container (water content in percent by weight)” value [1] does the source give for `O.O.O.O.O.O.[Cl-].[Cl-].[Mg+2]` [MgCl2×6H2O, magnesium chloride with crystal water, MgCl2×6H2O] here?
The value was roughly 24%.

And the water uptake [1]?
The water uptake was “significant water uptake”.

And the “physical state after storage” value [2]?
Its value is “liquefied”.

With `OC[C@H]1OC(O)[C@H](O)[C@@H](O)[C@@H]1O` (stereo partly drawn) [anhydrous glucose] as the compound, how does the caking [3] read?
Its caking is “does not promote caking”.

Which results are given for “alkaline magnesium carbonate, 4MgCO3×Mg(OH)2×5H2O”?
water uptake into the concentrate container (water content in percent by weight) [1]: no water uptake; water uptake [1]: did not absorb any water
